Here are results for 4 compounds from ChEMBL document CHEMBL1201862, “PubChem BioAssay data set” (2004).

Format in all cases: functional
The target in test [1] is T1, Replicative DNA helicase DnaB (Mycobacterium tuberculosis, UniProt P9WMR3).
T1 sequence (P9WMR3 whole entry): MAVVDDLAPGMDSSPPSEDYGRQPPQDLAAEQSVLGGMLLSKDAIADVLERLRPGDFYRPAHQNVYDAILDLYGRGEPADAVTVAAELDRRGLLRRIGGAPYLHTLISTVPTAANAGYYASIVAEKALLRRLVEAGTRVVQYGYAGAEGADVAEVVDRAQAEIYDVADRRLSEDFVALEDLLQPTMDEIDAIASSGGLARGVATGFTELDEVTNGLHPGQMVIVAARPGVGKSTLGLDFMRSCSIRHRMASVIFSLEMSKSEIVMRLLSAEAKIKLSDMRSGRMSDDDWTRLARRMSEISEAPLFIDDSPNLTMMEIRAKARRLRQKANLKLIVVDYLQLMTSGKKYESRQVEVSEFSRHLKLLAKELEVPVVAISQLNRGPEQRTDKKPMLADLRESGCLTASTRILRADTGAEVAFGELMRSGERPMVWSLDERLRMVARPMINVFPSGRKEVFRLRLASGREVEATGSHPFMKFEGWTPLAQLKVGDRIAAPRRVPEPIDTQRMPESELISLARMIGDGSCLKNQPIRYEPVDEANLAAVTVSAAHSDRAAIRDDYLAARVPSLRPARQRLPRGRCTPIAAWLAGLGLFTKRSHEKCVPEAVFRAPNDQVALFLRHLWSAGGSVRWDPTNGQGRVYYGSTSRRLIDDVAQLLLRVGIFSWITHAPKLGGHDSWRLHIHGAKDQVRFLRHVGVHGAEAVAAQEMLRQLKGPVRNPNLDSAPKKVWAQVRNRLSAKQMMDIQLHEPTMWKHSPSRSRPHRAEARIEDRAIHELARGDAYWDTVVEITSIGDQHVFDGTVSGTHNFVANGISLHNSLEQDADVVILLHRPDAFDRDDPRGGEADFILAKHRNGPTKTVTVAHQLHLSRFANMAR
Kind of test: DnaB intein splicing inhibitors, dose response, biochemical, cell-free fluorescence (AID 449749).

For another test, the target named is T2, Caspase-3 (Homo sapiens, UniProt P42574).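 Also: Dose-response selectivity test against caspase-3 for candidate inhibitors of sentrin-specific proteases (SENPs).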
T2 sequence (P42574 whole entry): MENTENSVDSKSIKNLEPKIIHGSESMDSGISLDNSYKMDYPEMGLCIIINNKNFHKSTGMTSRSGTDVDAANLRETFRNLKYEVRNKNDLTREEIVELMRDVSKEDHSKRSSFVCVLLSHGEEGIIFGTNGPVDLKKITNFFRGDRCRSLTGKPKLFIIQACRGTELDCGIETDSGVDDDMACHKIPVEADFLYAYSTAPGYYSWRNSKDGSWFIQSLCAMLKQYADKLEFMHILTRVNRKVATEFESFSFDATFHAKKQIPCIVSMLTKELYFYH

The target of test [2] is T3, Sentrin-specific protease 6 (Homo sapiens, UniProt Q9GZR1).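 Also: Luminescence-based dose-response confirmatory assay of SENP6 inhibition, following up an ultra-high-throughput screen.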
T3 sequence (Q9GZR1 whole entry): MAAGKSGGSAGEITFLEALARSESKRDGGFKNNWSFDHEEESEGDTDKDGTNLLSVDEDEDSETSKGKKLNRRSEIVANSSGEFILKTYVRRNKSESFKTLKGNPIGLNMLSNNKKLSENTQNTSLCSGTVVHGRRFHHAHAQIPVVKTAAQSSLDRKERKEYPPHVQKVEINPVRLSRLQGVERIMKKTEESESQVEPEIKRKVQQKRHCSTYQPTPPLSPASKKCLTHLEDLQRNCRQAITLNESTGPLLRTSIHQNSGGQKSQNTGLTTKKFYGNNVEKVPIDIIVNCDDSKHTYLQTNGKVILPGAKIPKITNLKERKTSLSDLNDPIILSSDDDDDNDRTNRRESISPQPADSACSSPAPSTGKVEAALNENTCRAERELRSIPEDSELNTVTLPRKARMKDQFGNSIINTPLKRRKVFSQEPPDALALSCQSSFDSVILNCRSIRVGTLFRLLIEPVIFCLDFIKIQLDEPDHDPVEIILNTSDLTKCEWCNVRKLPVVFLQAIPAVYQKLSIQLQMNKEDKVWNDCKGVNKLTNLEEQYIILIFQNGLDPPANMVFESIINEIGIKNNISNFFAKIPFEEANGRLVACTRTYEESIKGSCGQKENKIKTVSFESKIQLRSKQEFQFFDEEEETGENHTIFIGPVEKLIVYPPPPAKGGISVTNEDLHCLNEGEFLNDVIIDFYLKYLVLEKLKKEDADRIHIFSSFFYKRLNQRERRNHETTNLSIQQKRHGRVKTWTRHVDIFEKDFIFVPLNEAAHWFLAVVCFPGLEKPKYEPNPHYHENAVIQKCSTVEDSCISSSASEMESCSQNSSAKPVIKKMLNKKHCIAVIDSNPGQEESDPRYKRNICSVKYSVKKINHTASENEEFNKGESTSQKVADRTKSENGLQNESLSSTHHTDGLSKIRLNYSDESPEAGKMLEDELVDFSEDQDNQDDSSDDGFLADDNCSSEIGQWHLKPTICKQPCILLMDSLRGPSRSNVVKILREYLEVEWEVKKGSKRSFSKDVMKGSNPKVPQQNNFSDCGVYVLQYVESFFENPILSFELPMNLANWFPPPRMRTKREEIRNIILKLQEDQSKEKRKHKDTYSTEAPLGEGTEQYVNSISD

The target in test [3] is T4, Sentrin-specific protease 8 (Homo sapiens, UniProt Q96LD8).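 Also: luminescence read-out of SENP8 inhibition, dose-response confirmation following an ultra-high-throughput screen.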
T4 sequence (Q96LD8 whole entry): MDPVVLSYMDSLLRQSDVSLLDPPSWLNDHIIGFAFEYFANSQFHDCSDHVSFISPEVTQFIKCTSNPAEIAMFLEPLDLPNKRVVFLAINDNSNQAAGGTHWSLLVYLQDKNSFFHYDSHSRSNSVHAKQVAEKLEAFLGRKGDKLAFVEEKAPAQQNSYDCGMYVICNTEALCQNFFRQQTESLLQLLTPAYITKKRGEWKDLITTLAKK

Test [4] in a line: viability loss in HeLa cells – cytotoxicity control for MgcRacGAP inhibitor project, dose response (AID 624300).

The source made the active and inactive calls. Rule as the data show it, for most assays here: actives have a measured IC50 and inactives only a lower limit.

In general, AC50 refers to the concentration giving half of the maximal activity seen. Consider `Cc1cccc(C)c1-n1cccc1/C=C1\SC(=S)N(c2cccc(C(=O)O)c2)C1=O`, for which the AC50 in test [1] was 3.26 µM (active).

Broadly, the IC50 is the concentration at which inhibition is half-maximal. Turning to `Oc1ccc(/C=N/Nc2cc(N3CCCC3)nc(N3CCCC3)n2)cc1`, the IC50 on Caspase-3 was > 100 µM (inactive); in test [2] it was 6.05 µM (active); in test [3], 22.1 µM (active).

Broadly, the CC50 is the concentration that lowers cell viability or growth by half. On to `COc1ccc(S(=O)(=O)/N=C2\C=C(Nc3ccc(O)cc3)C(=O)c3ccccc32)cc1`, for which, in test [1], the AC50 is > 380 µM (inconclusive). For the same compound, in test [4], the CC50 is 2.15 µM (active).

As for `COc1ccc(/C=N/Nc2cc(N3CCCC3)nc(N3CCCC3)n2)cc1`, the IC50 at Caspase-3 was > 100 µM (inactive); in test [2], 2.71 µM (active); in test [3], 7.52 µM (active).
